The values below come from article PMC7115615 (European Journal of Medicinal Chemistry, 2013).

A value given as a limit tells only on which side of the number the result lay.

In data set [1] the test system is respiratory viruses panel (Flu A (H1N1), Flu A (H3N2), Flu A (H5N1), Flu B, SARS CoV). Format: cell-based.
For data set [2], the system named is Flu A (H3N2) Perth/16/2009. As to the kind of experiment: Primary antiviral assay. It counts as cell-based.
Data set [3] concerns Flu A (H1N1) California/07/2009. As to the kind of experiment: Primary antiviral assay. Format: cell-based.
The test system of the next data set is Flu B Florida/4/2006. As to the kind of experiment: Primary antiviral assay. Format: cell-based.
For data set [4], the system named is Flu A (H5N1) Duck/MN/1525/81. It counts as cell-based.
The mark [5] stands for this setting: 50% effective (virus-inhibitory) concentration.

In general, EC50 refers to the concentration at which the effect is half-maximal.

With `NC(=O)c1ncn([C@@H]2O[C@H](CO)[C@@H](O)[C@H]2O)n1` [Ribavirin], the CC50 in “in vitro” was > 348 µM. Further, in data set [1], the “activity of positive controls, in words” value is listed as “active as expected”.

Take “oseltamivir carboxylate [Oseltamirvir-carboxylate]”: the EC50 was found to be 3.06 µM in data set [2] (setting [5]), 19 µM in data set [3] (setting [5]), 3.52 µM in the data set on Flu B Florida/4/2006 (setting [5]) and 110 nM in data set [4]. Besides, the SI in data set [2] ([…]) is >11; in data set [3] ([…]), >1.9; in the data set on Flu B Florida/4/2006 ([…]) it was >10; in data set [4] it was >326. Moreover, the CC50 with uninfected cells was > 35.2 µM. The “activity of positive controls, in words” value in data set [1] is given as “active as expected”.
